From patent US10662204B2 (PFIZER INC., priority 2018, dated 2020) come the findings set out here.

The target of test [1] is T1, GDP-loaded KRAS (1-169) G12C, C51S, C80L, C118S (Homo sapiens, UniProt P01116, C118S/C51S/C80L/G12C).
T1 construct: GDP-loaded KRAS (1-169) G12C, C51S, C80L, C118S
Nature of the test: Mass Spectrometry Reactivity Assay (MSRA): covalent adduct of compound and KRAS G12C, Percent Modification. Type of test: binding. The note with it: for MSRA (% modification) 10 μM 0.25 hr / MSRA (% modification) 10 μM 0.50 hr: 10 μM compound. A digest of the protocol:
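GDP-loaded KRAS(1-169) G12C/C51S/C80L/C118S at 5 μM in 25 mM Hepes pH 7.5, 200 mM NaCl, 5% glycerol incubated at RT with compound (typically 5 or 10 μM final, 1% DMSO). Quenched in formic acid at 1-60 min; intact-protein LC-TOF MS gives % modification = modified/(modified+unmodified).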

The target of the next test is KRAS G12C (Homo sapiens, UniProt P01116, G12C). Nature of the test: Cell Activity Assay: accumulation of GDP-bound KRAS G12C in MIAPaCa-2 cells (Raf-1 RBD capture, MSD readout). The test is classed as cell-based. Also noted: endogenous in cells; host or cells: MIAPaCa-2. To be noted: 6 hours, assay limit is 30.00. A digest of the protocol: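 MIAPaCa-2 cells exposed 6 h at 37 °C to 3-fold compound dilutions (0.3% DMSO final), then lysed. Active GTP-KRAS captured on Raf-1 RBD-coated plates, detected with anti-pan-Ras and SULFO-TAG secondary by MSD electrochemiluminescence. Signal normalized to DMSO and maximum inhibition; IC50 from 4-parameter fit.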

Consider `C=CC(=O)N1CCN(c2nc(OC[C@@H]3CCCN3C)nc3c(Oc4c(Cl)c(C)cc5[nH]ncc45)nc(Cl)cc23)CC1` [Example 06G, 1-[4-(6-chloro-8-[(5-chloro-6-methyl-1H-indazol-4-yl)oxy]-2-{[(2S)-1-methylpyrrolidin-2-yl]methoxy}pyrido[3,4-d]pyrimidin-4-yl)piperazin-1-yl]prop-2-en-1-one], for which the “MSRA (% modification) 5.0 μM 0.017 hr” value in test [1] (5.0 μM compound, 0.017 hr) was 23%. In addition, in test [1] (5.0 μM compound), the “MSRA (% modification) 5.0 μM 0.25 hr” value was 52%. Moreover, the “MSRA (% modification) 10 μM 0.25 hr” value in test [1] came to 82%. Further, the IC50 (usually the concentration that inhibits the measured activity by half) on KRAS G12C amounted to 0.064 µM.

For `C=CC(=O)N1CCN(c2nc(OC[C@H]3CCCO3)nc3c(Oc4c(Cl)c(F)cc5[nH]ncc45)nccc23)CC1` [Example 06H, 1-(4-{8-[(5-chloro-6-fluoro-1H-indazol-4-yl)oxy]-2-[(2R)-tetrahydrofuran-2-ylmethoxy]pyrido[3,4-d]pyrimidin-4-yl}piperazin-1-yl)prop-2-en-1-one], the “MSRA (% modification) 5.0 μM 0.25 hr” value in test [1] (5.0 μM compound) is reported as 48%. Besides, the “MSRA (% modification) 10 μM 0.25 hr” value in test [1] stood at 60%. Further, at KRAS G12C, 0.611 µM corresponded to half-maximal inhibition (IC50).

For the compound `C=CC(=O)N1CCN(c2nc(Oc3cccnc3C3CC3)nc3c(Oc4c(Cl)c(F)cc5[nH]ncc45)nccc23)CC1` [Example 06I, 1-(4-{8-[(5-chloro-6-fluoro-1H-indazol-4-yl)oxy]-2-[(2-cyclo-propyl-pyridin-3-yl)oxy]pyrido [3,4-d]pyrimidin-4-yl}piperazin-1-yl)prop-2-en-1-one], the “MSRA (% modification) 5.0 μM 0.25 hr” value in test [1] (5.0 μM compound) worked out at 74%. This compound showed an IC50 against KRAS G12C of 0.02 µM.

In the case of `C=CC(=O)N1CCN(c2nc(N3C[C@@](C)(O)[C@@H]3C)nc3c(Oc4c(Cl)c(F)cc5[nH]ncc45)nccc23)CC1` [Example 06J, 1-(4-{8-[(5-chloro-6-fluoro-1H-indazol-4-yl)oxy]-2-[(2S,3R)-3-hydroxy-2,3-dimethylazetidin-1-yl]pyrido[3,4-d]pyrimidin-4-yl}piperazin-1-yl)prop-2-en-1-one], the “MSRA (% modification) 5.0 μM 0.25 hr” value in test [1] (5.0 μM compound) stood at 33%. The IC50 against KRAS G12C stood at 0.638 µM.

`C=CC(=O)N1CCN(c2ncnc3c(Oc4c(CC)ccc5[nH]ncc45)nccc23)CC1` [Example 07A, 1-(4-{8-[(5-ethyl-1H-indazol-4-yl)oxy]pyrido[3,4-d]pyrimidin-4-yl}piperazin-1-yl)prop-2-en-1-one]: the “MSRA (% modification) 10 μM 0.50 hr” value in test [1] stood at 16%. Further, at KRAS G12C, the IC50 was determined as 7.15 µM.

As for `C=CC(=O)N1CCN(c2nc(OC[C@@H]3CC(F)(F)CN3C)nc3c(Oc4c(C)ccc5[nH]ncc45)nccc23)CC1` [Example 07B, 1-[4-(2-{[(2S)-4,4-difluoro-1-methylpyrrolidin-2-yl]methoxy}-8-[(5-methyl-1H-indazol-4-yl)oxy]pyrido[3,4-d]pyrimidin-4-yl)piperazin-1-yl]prop-2-en-1-one], the “MSRA (% modification) 10 μM 0.25 hr” value in test [1] was 15%. The same compound had an IC50 against KRAS G12C of 6.18 µM.

Turning to `C=CC(=O)N1CCN(c2ncnc3c(Oc4c(Cl)ccc5[nH]ncc45)cccc23)C[C@@H]1C` [Example 07C, 1-[(2S)-4-{8-[(5-chloro-1H-indazol-4-yl)oxy]quinazolin-4-yl}-2-methylpiperazin-1-yl]prop-2-en-1-one], in test [1], the “MSRA (% modification) 10 μM 0.50 hr” value was determined as 15%. Also, on KRAS G12C, half-maximal inhibition (IC50) was put at 5.67 µM.

With `C=CC(=O)N1CCN(c2nc(OCc3nncn3C)nc3c(Oc4c(C)ccc5[nH]ncc45)cccc23)CC1` [Example 07F, 1-(4-{8-[(5-methyl-1H-indazol-4-yl)oxy]-2-[(4-methyl-4H-1,2,4-triazol-3-yl)methoxy]quinazolin-4-yl}piperazin-1-yl)prop-2-en-1-one], in test [1] (5.0 μM compound), the “MSRA (% modification) 5.0 μM 0.25 hr” value amounted to 22%. Further, in test [1], the “MSRA (% modification) 10 μM 0.25 hr” value came out at 74% and the “MSRA (% modification) 10 μM 0.50 hr” value is 75%. Moreover, at KRAS G12C, the IC50 came to 21.2 µM.
